Results as given in patent US20070179121A1, “Method of treating pediatric patients with corticosteroids” (priority 2006, published 2007).

Test system: HPA-axis
Assay: HPA-axis suppression: serum cortisol before and 30 minutes after intravenous cosyntropin stimulation, pediatric atopic dermatitis patients
Type: in vivo, human (pediatric patients)
Settings: for Not suppressed: percent in brackets
Protocol: At the baseline visit, physical examinations were performed, including measurements of height, weight, and vital signs, and female subjects of childbearing potential underwent a urine pregnancy test (UPT). Patients with any significant disease of the hepatic, renal, endocrine, musculoskeletal, or nervous system were excluded. At Screening/Baseline, each qualified patient was assessed for a normally functioning HPA axis. Male or female patients with clinically diagnosed atopic dermatitis, involving ≧20% of the total body surface area (BSA), were randomized to receive either qd (once a day) or bid (twice a day) treatment in 4 sequential cohorts. The “rule of nines” method was used in calculating affected BSA.
Enrollment in the 4 cohorts was as follows: Cohort 1-33 patients, 12 to <18 years of age; Cohort 2-32 patients, 6 to <12 years of age; Cohort 3-30 patients, 2 to […] Cohort 4-31 infants, 3 months to <2 years of age.
Enrollment into each cohort began only after evaluation of the preceding cohort in order to minimize the risk of systemic toxicity to the study subjects. Four observations of HPA-axis suppression in a single treatment group per cohort were considered as evidence of a clinically significant risk.
Patients who met the inclusion/exclusion criteria were randomized to receive topical fluocinonide either qd or bid. Patients/guardians were instructed to apply a thin layer of the study product to all treatable areas once or twice daily for 14 days. If the areas to be treated were hairy, patients/guardians were instructed to part the hair to allow direct contact between the study product and the lesion. Patients/guardians were also instructed not to apply study product to lesions of the face, groin, perianal area, and axillae. At the end of Weeks 1, 2, and 4, patients returned to the study site in order for the investigator to perform designated evaluations, review treatment compliance and concomitant therapy, and to collect information regarding adverse events.
The potential of fluocinonide to suppress the HPA-axis was assessed by determining the rate of incidence of suppression, when suppression was defined as a serum cortisol level ≦18 μg/dL, 30 minutes after intravenous cosyntropin stimulation. For a subject to be evaluable for HPA-axis suppression, the subject must have received at least 2 full weeks of fluocinonide treatment prior to the cosyntropin challenge. Pre-and post-cosyntropin-stimulation blood samples were obtained between 7:30 and 8:30 AM to account for diurnal variation in cortisol levels, at the Baseline and Week 2 visits, as directed in the Cortrosyn® package insert. Cortrosyn® is a drug that stimulates the adrenal gland. […] The dose and administration of cosyntropin followed the labeling of the product. Specifically, the dose for subjects 3 to 17 years of age was 0.25 mg, and the dose for subjects 3 months to 2 years old was 0.125 mg. At the end of the 14-day treatment period, any subject with a post-stimulation cortisol level ≦18 μg/dL was re-tested at Week 4 and once every 4 weeks thereafter until the post-stimulation levels were within normal limits.
Mean post-stimulation cortisol levels measured at Baseline and at Week 2 were compared using a paired t test.

[1] = End of Week 2, Cohort 1 (12-<18 years), bid
[2] = End of Week 2, Cohort 1 (12-<18 years), qd
[3] = End of Week 2, Cohort 2 (6-<12 years), bid
[4] = End of Week 2, Cohort 2 (6-<12 years), qd
[5] = End of Week 2, Cohort 3 (2-<6 years), bid
[6] = End of Week 2, Cohort 3 (2-<6 years), qd
[7] = End of Week 2, Cohort 4 (3 months to <2 year), bid
[8] = End of Week 2, Cohort 4 (3 months to <2 year), qd
[9] = Screening, Cohort 1 (12-<18 years), bid
[10] = Screening, Cohort 1 (12-<18 years), qd
[11] = Screening, Cohort 2 (6-<12 years), bid
[12] = Screening, Cohort 2 (6-<12 years), qd
[13] = Screening, Cohort 3 (2-<6 years), bid
[14] = Screening, Cohort 3 (2-<6 years), qd
[15] = Screening, Cohort 4 (3 months to <2 year), bid
[16] = Screening, Cohort 4 (3 months to <2 year), qd
[17] = patient of Cohort 3 bid, Week 2 (samples suspected reversed)

CC(=O)OCC(=O)[C@@]12OC(C)(C)O[C@@H]1C[C@H]1[C@@H]3C[C@H](F)C4=CC(=O)C=C[C@]4(C)[C@@]3(F)[C@@H](O)C[C@@]12C [Fluocinonide, pregna-1,4-diene-3,20-dione,21-(acetyloxy)-6,9-difluoro-11-hydroxy-16, 17-[(1-methylethylidene)bis(oxy)]-,(6α., 11β,16α)-]
Patients who met the criterion for HPA-axis suppression (Cohort 1, bid, 1 of 15): 6.7% | Patients who met the criterion for HPA-axis suppression (Cohort 2, bid, 2 of 16): 12.5% | Patients who met the criterion for HPA-axis suppression (Cohort 3, bid, Week 2, 1 of 15, samples suspected reversed, not counted as suppression): 6.7% | Subjects who experienced HPA-axis suppression (Cohort 4): None | Cortisol increase in levels, Mean ± SD [1]: 8.6 ± 4.7 µg/dL | Cortisol increase in levels, Range [1]: 1.2 to 17.0 µg/dL | Cortisol pre-stimulation level, Mean ± SD [1]: 17.2 ± 8.3 µg/dL | Cortisol pre-stimulation level, Range [1]: 7.1 to 34.2 µg/dL | Not suppressed [1]: 14 (93.3) N | Cortisol increase in levels, Mean ± SD [2]: 9.3 ± 5.1 µg/dL | Cortisol increase in levels, Range [2]: 3.5 to 22.2 µg/dL | Cortisol pre-stimulation level, Mean ± SD [2]: 17.6 ± 7.6 µg/dL | Cortisol pre-stimulation level, Range [2]: 1.2 to 32.9 µg/dL | Not suppressed [2]: 15 (100) N | Cortisol increase in levels, Mean ± SD [3]: 11.5 ± 5.2 µg/dL | Cortisol increase in levels, Range [3]: -3.5 to 20.3 µg/dL | Cortisol pre-stimulation level, Mean ± SD [3]: 12.3 ± 4.9 µg/dL | Not suppressed [3]: 14 (87.5) N | Cortisol increase in levels, Mean ± SD [4]: 11.0 ± 4.8 µg/dL | Cortisol increase in levels, Range [4]: -2.3 to 17.8 µg/dL | Cortisol pre-stimulation level, Mean ± SD [4]: 13.7 ± 5.6 µg/dL | Cortisol pre-stimulation level, Range [4]: 6.9 to 29.3 µg/dL | Cortisol post-stimulation level, Mean ± SD (End of Week 2, Cohort 2 (6-<12 years), qd, P = 0.015 vs screening): 24.7 ± 3.0 µg/dL | Cortisol post-stimulation level, Mean ± SD (End of Week 2, Cohort 2 (6-<12 years), qd, P = 0.015 vs screening, listed as fluocinonide): 24.7 µg/dL | Not suppressed [4]: 15 (100) N | Cortisol increase in levels, Mean ± SD [5]: 11.0 ± 10.4 µg/dL | Cortisol increase in levels, Range [5]: -19 to 29.1 µg/dL | Cortisol pre-stimulation level, Mean ± SD [5]: 15.0 ± 5.9 µg/dL | Not suppressed [5]: 15 (100) N | Cortisol increase in levels, Mean ± SD [6]: 12.7 ± 4.9 µg/dL | Cortisol increase in levels, Range [6]: 3.1 to 22.0 µg/dL | Cortisol pre-stimulation level, Mean ± SD [6]: 15.4 ± 7.0 µg/dL | Not suppressed [6]: 15 (100) N | Cortisol increase in levels, Mean ± SD [7]: 16.5 ± 6.6 µg/dL | Cortisol increase in levels, Range [7]: 7.0 to 29.7 µg/dL | Cortisol pre-stimulation level, Mean ± SD [7]: 13.0 ± 4.6 µg/dL | Not suppressed [7]: 15 (100) N | Cortisol increase in levels, Mean ± SD [8]: 19.9 ± 7.1 µg/dL | Cortisol increase in levels, Range [8]: 6.4 to 29.9 µg/dL | Cortisol pre-stimulation level, Mean ± SD [8]: 10.4 ± 3.2 µg/dL | Not suppressed [8]: 15 (100) N | Cortisol increase in levels, Mean ± SD [9]: 11.1 ± 3.7 µg/dL | Cortisol increase in levels, Range [9]: 4.3 to 17.4 µg/dL | Cortisol post-stimulation level, Mean ± SD [9]: 26.8 ± 8.0 µg/dL | Cortisol post-stimulation level, Range [9]: 18.3 to 50.4 µg/dL | Cortisol pre-stimulation level, Mean ± SD [9]: 15.7 ± 10.3 µg/dL | Cortisol pre-stimulation level, Range [9]: 0.9 to 42.7 µg/dL | Cortisol increase in levels, Mean ± SD [10]: 9.3 ± 5.2 µg/dL | Cortisol increase in levels, Range [10]: -1.2 to 22.1 µg/dL | Cortisol post-stimulation level, Mean ± SD [10]: 26.4 ± 3.7 µg/dL | Cortisol post-stimulation level, Range [10]: 18.2 to 31.3 µg/dL | Cortisol pre-stimulation level, Mean ± SD [10]: 17.2 ± 6.6 µg/dL | Cortisol pre-stimulation level, Range [10]: 2.0 to 26.1 µg/dL | Cortisol increase in levels, Mean ± SD [11]: 12.3 ± 3.7 µg/dL | Cortisol increase in levels, Range [11]: 3.8 to 17.8 µg/dL | Cortisol post-stimulation level, Mean ± SD [11]: 24.9 ± 3.9 µg/dL | Cortisol post-stimulation level, Range [11]: 19.4 to 32.1 µg/dL | Cortisol pre-stimulation level, Mean ± SD [11]: 12.5 ± 4.5 µg/dL | Cortisol pre-stimulation level, Range [11]: 6.4 ± 22.2 µg/dL | Cortisol increase in levels, Mean ± SD [12]: 14.0 ± 6.1 µg/dL | Cortisol increase in levels, Range [12]: 3.0 to 22.6 µg/dL | Cortisol post-stimulation level, Mean ± SD [12]: 28.0 ± 4.3 µg/dL | Cortisol post-stimulation level, Range [12]: 20.9 to 36.2 µg/dL | Cortisol pre-stimulation level, Mean ± SD [12]: 14.0 ± 5.0 µg/dL | Cortisol pre-stimulation level, Range [12]: 6.6 to 25.1 µg/dL | Cortisol post-stimulation level, Mean ± SD (Screening, Cohort 2 (6-<12 years), qd, listed as fluocinonide): 28.0 µg/dL | Cortisol increase in levels, Mean ± SD [13]: 15.6 ± 7.0 µg/dL | Cortisol increase in levels, Range [13]: 1.8 to 30.0 µg/dL | Cortisol post-stimulation level, Mean ± SD [13]: 29.9 ± 6.1 µg/dL | Cortisol post-stimulation level, Range [13]: 20.1 to 40.0 µg/dL | Cortisol pre-stimulation level, Mean ± SD [13]: 14.4 ± 5.6 µg/dL | Cortisol pre-stimulation level, Range [13]: 6.1 to 23.4 µg/dL | Cortisol increase in levels, Mean ± SD [14]: 17.4 ± 3.1 µg/dL | Cortisol increase in levels, Range [14]: 11.2 to 23.0 µg/dL | Cortisol post-stimulation level, Mean ± SD [14]: 29.0 ± 3.8 µg/dL | Cortisol post-stimulation level, Range [14]: 22.8 to 37.0 µg/dL | Cortisol pre-stimulation level, Mean ± SD [14]: 11.6 ± 3.6 µg/dL | Cortisol pre-stimulation level, Range [14]: 7.3 to 19.8 µg/dL | Cortisol increase in levels, Mean ± SD [15]: 17.9 ± 4.7 µg/dL | Cortisol increase in levels, Range [15]: 11.4 to 25.0 µg/dL | Cortisol post-stimulation level, Mean ± SD [15]: 29.2 ± 6.1 µg/dL | Cortisol post-stimulation level, Range [15]: 20.5 to 38.8 µg/dL | Cortisol pre-stimulation level, Mean ± SD [15]: 11.3 ± 4.9 µg/dL | Cortisol pre-stimulation level, Range [15]: 6.0 to 20.8 µg/dL | Cortisol increase in levels, Mean ± SD [16]: 16.5 ± 4.7 µg/dL | Cortisol increase in levels, Range [16]: 6.1 to 23.0 µg/dL | Cortisol post-stimulation level, Mean ± SD [16]: 28.3 ± 5.1 µg/dL | Cortisol post-stimulation level, Range [16]: 20.7 to 36.2 µg/dL | Cortisol pre-stimulation level, Mean ± SD [16]: 11.8 ± 4.3 µg/dL | Cortisol pre-stimulation level, Range [16]: 4.7 to 19.6 µg/dL | Suppression of the HPA-axis (administered once daily, patients 3 months to <18 years of age): does not result in suppression of the HPA-axis | HPA-axis suppression (administered topically once or twice daily, pediatric patients with atopic dermatitis): does not result in any significant level of HPA-axis suppression | Suppression of the HPA-axis (administered twice daily): low incidence of suppression of the HPA-axis | Post-stimulation serum cortisol level, single patient (first suppressed patient of Cohort 2 bid, Screening): 32.1 µg/dL | Post-stimulation serum cortisol level, single patient (first suppressed patient of Cohort 2 bid, Week 2): 17.2 µg/dL | Post-stimulation serum cortisol level, single patient (first suppressed patient of Cohort 2 bid, Week 4 (2 weeks post-treatment)): 28.7 µg/dL | Post-stimulation serum cortisol level, single patient (patient of Cohort 3 bid, Screening): 40.0 µg/dL | Post-stimulation serum cortisol level, single patient [17]: 9.1 µg/dL | Pre-stimulation serum cortisol level, single patient [17]: 28.0 µg/dL | Post-stimulation serum cortisol level, single patient (patient of Cohort 3 bid, Week 4): 30.3 µg/dL | Post-stimulation serum cortisol level, single patient (second suppressed patient of Cohort 2 bid, 8 days after the end of treatment): 22.4 µg/dL | Post-stimulation serum cortisol level, single patient (second suppressed patient of Cohort 2 bid, Screening): 20.5 µg/dL | Post-stimulation serum cortisol level, single patient (second suppressed patient of Cohort 2 bid, Week 2): 16.7 µg/dL | Post-stimulation serum cortisol level, single patient (suppressed patient of Cohort 1 bid, Week 2): 17.6 µg/dL | Post-stimulation serum cortisol level, single patient (suppressed patient of Cohort 1 bid, Week 4 (2 weeks post-treatment)): 18.9 µg/dL
